Calls of active or inactive are those of the source.
Assays:
[1] = target: E3 ubiquitin-protein ligase Mdm2 (Homo sapiens, UniProt Q00987); assay: MDM2-luc reporter signal enhancers, multi-concentration potency testing, MDM2 ubiquitin-protein ligase inhibitor program, whole-cell format, luminescence detection, 384-well microplate (AID 1394); assay type: functional;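 note: MDM2 E3 inhibitors raise luminescence so EC50 is for signal enhancement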
[2] = target: T1, Microphthalmia-associated transcription factor (Homo sapiens, UniProt O75030); assay: reducers of TRPM1 reporter luminescence, concentration series – cell-based, SK-MEL-5, cherry-picked, set 3, MITF inhibitor project, dose response (AID 493073); assay type: functional;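 note: SK-MEL-5 melanoma cells with luciferase driven by the MITF target TRPM1 promoter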
T1 sequence (O75030 whole entry): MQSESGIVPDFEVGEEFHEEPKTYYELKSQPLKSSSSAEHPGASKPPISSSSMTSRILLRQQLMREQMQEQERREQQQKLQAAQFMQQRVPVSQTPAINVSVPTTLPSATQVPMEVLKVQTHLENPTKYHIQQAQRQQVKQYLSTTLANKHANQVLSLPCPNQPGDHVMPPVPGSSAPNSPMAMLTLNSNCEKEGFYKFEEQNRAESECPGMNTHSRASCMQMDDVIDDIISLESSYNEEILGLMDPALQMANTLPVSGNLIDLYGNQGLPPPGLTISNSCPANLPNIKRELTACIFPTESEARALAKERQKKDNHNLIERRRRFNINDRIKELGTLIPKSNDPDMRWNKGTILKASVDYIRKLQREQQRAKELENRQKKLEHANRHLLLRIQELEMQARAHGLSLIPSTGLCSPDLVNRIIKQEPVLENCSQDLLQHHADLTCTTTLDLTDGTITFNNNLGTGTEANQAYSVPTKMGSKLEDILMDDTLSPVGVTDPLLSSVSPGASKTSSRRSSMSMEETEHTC

[3] = target: T2, Polyadenylate-binding protein 1 (Homo sapiens, UniProt P11940); assay: MLLE binding blockers, Cy5 peptide tracer – biochemical, fluorescence polarization, Cy5-PAM2 peptide, secondary, miRNA deadenylation inhibitor project, dose response (AID 602260); assay type: functional; conditions: read-out: IC50_Mean
[4] = target: T2, Polyadenylate-binding protein 1; assay: MLLE domain peptide-binding blockers, IC50 – biochemical, fluorescence polarization, FITC-PAM2 peptide, dose response (AID 602259); assay type: functional; conditions: read-out: IC50_Mean
[5] = M. tuberculosis H37Rv growth inhibitors, H37Rv strain (AID 1626); assay type: functional
[6] = target: Protein-tyrosine kinase 2-beta (Homo sapiens, UniProt Q14289);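 note: potency of inhibitors of PYK2 kinase phosphorylation of poly-GT substrate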
[7] = target: T3, RNA-binding protein pos-1 (Caenorhabditis elegans, UniProt G5EF15); assay: disruptors of C. elegans POS-1 RNA interaction – biochemical, fluorescence polarization, dose response (AID 1964);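 note: purified POS-1 fused to maltose binding protein made in E. coli; potency of compounds blocking POS-1 binding to fluorescent RNA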
T3 sequence (G5EF15 whole entry): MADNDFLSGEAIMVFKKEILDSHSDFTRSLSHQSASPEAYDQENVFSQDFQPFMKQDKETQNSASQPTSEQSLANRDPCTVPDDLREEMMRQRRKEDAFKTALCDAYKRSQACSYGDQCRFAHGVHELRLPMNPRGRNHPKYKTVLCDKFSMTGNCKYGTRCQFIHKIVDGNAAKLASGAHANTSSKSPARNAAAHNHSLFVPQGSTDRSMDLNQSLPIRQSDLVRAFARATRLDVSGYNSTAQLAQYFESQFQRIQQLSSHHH

[8] = target: T4, Zinc finger protein mex-5 (Caenorhabditis elegans, UniProt Q9XUB2); assay: potency of MEX-5 RNA-binding blockers – biochemical, C. elegans, fluorescence polarization, dose response (AID 1960)
T4 sequence (Q9XUB2 whole entry): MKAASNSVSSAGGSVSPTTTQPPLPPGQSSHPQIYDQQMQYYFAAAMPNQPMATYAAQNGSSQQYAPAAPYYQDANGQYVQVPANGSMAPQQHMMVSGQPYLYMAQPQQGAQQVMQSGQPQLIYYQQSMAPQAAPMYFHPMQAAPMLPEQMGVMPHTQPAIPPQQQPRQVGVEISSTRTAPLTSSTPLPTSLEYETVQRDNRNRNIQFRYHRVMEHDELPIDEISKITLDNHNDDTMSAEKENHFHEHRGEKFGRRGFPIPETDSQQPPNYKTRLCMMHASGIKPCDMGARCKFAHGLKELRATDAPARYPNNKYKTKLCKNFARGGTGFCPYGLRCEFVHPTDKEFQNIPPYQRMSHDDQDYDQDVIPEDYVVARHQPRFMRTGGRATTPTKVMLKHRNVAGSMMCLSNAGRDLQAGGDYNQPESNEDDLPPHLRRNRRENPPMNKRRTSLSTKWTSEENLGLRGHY

[9] = target: Bifunctional protein GlmU (Mycobacterium tuberculosis, UniProt P9WMN3); assay: Inhibitors of Mycobacterial Glucosamine-1-phosphate acetyl transferase (GlmU). Secondary screen.; design: species or system Mycobacterium tuberculosis H37Rv
Genome polyprotein = Genome polyprotein (dengue virus type 2, UniProt P29990); assay: flavivirus cap methylation enzyme inhibition – biochemical, confirmation dose response, primary screen (AID 588689); assay type: functional
[10] = HIV-1 Vif–A3G interaction blockers – biochemical, TR-FRET, GST-Vif 1-94, biotin-A3G peptide, dose response retest, primary screen (AID 1117319); assay type: functional;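 note: TR-FRET signal of purified GST-Vif binding a biotinylated A3G peptide; inhibitors lower the FRET signal by blocking Vif and A3G binding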
Cytochrome P450 2D6 = Cytochrome P450 2D6 (Homo sapiens, UniProt P10635);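 note: CYP2D6 member of a cytochrome P450 panel assay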
Cytochrome P450 3A4 = Cytochrome P450 3A4 (Homo sapiens, UniProt P08684);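 note: CYP3A4 tested as one member of a cytochrome P450 panel screen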
[11] = Luminescence Cell-Based Dose Response to Identify Activators of 5'UTR Stem-Loop Driven Prion Protein mRNA Translation in H4-C Neuroglioblastoma Cells. [Related pubchem assays: 1829 (Project Summary), 1814 (Primary HTS)]; assay type: functional
[12] = Luminescence Cell-Based Dose Response HTS to Identify Activators of Luciferase Translation or Activity in H4 […] Cells. [Related pubchem assays: 1829 (Project Summary), 1814 (Primary HTS)]; assay type: functional
H4 = assay: Luminescence Cell-Based Dose Response HTS to Identify Activators of 5'UTR Stem-Loop Driven Prion Protein mRNA Translation in H4 Neuroglioblastoma Cells. [Related pubchem assays: 1829 (Project Summary), 1814 (Primary HTS)]; assay type: functional; conditions: Homo sapiens
[13] = Luminescence Cell-Based Dose Response to Identify Activators of Luciferase Translation or Activity in H4-C Neuroglioblastoma Cells. [Related pubchem assays: 1829 (Project Summary), 1814 (Primary HTS)]; assay type: functional
[14] = Luminescence Cell-Based Dose Confirmation to Identify Activators of 5'UTR Stem-Loop Driven Alpha-Synuclein mRNA Translation in H4 Neuroglioblastoma Cells. [Related pubchem assays: 1829 (Project Summary), 1814 (Primary HTS)]; assay type: functional
[15] = HPDE-C7 pancreatic duct cell viability loss – fluorescence, HTS (AID 430); assay type: functional, cell-based; conditions: Homo sapiens
[16] = viability loss of HPDE-C7K cells – cell-based, fluorescence, HTS, primary screen (AID 431); assay type: functional; conditions: Homo sapiens
[17] = viability inhibitors of stage V gametocytes – luminescence, dose response (AID 1117278); assay type: functional, cell-based;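 note: gametocytes exposed to compound for 24 hours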
[18] = viability loss in human Jurkat cells – cell-based, luminescence, cytotoxicity control for P. falciparum gametocyte viability project, dose response (AID 1117277); assay type: functional;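 note: potency reflects loss of cellular ATP meaning fewer viable cells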

T2 sequence (P11940 whole entry, the tested form may be a part): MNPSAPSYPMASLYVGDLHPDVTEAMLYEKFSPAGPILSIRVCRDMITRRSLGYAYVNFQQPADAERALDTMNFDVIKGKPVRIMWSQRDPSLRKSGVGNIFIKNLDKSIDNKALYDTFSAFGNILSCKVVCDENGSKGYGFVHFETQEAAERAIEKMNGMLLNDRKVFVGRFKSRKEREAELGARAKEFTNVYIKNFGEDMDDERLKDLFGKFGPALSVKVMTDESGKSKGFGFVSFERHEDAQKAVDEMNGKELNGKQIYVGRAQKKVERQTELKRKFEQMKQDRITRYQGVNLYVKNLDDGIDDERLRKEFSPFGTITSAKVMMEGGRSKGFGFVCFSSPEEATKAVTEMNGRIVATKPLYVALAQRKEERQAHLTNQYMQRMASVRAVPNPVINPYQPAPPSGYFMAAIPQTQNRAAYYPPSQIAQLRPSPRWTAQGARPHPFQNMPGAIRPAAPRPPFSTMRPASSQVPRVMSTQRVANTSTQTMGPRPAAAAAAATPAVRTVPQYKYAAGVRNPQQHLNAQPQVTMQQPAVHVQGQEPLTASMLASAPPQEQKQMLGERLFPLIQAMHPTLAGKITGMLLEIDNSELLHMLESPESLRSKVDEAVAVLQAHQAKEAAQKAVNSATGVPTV
Sequence of Genome polyprotein (P29990 2492-3391 limits assumed): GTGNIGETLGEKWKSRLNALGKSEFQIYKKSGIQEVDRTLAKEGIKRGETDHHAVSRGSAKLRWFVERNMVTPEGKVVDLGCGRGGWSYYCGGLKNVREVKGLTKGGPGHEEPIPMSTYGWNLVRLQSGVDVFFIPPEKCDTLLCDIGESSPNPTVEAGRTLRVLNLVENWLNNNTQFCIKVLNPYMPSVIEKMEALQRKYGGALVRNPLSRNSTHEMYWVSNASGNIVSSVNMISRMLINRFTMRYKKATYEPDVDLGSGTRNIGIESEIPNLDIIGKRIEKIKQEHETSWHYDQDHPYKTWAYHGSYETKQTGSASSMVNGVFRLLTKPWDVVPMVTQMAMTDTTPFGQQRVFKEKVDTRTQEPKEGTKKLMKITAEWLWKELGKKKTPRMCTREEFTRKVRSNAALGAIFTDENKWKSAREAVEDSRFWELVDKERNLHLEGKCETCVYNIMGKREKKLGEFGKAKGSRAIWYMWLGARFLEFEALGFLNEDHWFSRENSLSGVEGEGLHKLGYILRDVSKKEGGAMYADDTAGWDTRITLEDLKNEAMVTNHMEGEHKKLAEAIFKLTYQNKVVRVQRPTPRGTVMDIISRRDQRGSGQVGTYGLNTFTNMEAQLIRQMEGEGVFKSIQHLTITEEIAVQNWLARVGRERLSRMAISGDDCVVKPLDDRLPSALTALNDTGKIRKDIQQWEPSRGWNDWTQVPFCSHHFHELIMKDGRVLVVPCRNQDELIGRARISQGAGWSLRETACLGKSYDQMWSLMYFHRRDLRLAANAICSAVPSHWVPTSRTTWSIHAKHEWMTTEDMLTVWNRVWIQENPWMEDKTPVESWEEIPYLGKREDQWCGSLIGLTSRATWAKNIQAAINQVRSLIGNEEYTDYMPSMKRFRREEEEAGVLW
Sequence of Cytochrome P450 3A4 (P08684 whole entry): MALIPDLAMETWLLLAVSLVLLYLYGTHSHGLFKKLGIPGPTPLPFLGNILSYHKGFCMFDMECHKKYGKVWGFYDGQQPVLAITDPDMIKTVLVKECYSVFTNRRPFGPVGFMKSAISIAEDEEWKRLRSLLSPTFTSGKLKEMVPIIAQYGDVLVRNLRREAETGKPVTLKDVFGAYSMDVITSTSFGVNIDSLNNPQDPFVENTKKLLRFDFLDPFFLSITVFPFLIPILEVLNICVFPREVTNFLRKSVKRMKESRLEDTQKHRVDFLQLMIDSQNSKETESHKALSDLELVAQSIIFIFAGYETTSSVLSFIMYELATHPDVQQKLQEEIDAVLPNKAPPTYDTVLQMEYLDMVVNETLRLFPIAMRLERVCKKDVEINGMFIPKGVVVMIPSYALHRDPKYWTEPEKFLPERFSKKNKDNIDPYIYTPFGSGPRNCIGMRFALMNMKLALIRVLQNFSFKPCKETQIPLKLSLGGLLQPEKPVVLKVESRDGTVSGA
Sequence of E3 ubiquitin-protein ligase Mdm2 (Q00987 whole entry): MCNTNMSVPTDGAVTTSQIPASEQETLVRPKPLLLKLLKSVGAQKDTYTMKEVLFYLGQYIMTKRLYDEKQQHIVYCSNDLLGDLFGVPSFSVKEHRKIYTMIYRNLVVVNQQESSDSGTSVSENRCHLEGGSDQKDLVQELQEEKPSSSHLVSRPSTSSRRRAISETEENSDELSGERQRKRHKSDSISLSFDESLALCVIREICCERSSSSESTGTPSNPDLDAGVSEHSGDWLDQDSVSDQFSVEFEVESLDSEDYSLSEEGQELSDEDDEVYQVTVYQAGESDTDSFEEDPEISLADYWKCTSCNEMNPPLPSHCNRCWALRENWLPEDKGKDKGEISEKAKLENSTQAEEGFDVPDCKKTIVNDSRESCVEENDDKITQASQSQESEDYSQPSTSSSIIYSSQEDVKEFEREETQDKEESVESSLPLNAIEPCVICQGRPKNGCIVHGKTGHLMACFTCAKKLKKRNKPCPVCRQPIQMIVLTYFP
Sequence of Cytochrome P450 2D6 (P10635 whole entry): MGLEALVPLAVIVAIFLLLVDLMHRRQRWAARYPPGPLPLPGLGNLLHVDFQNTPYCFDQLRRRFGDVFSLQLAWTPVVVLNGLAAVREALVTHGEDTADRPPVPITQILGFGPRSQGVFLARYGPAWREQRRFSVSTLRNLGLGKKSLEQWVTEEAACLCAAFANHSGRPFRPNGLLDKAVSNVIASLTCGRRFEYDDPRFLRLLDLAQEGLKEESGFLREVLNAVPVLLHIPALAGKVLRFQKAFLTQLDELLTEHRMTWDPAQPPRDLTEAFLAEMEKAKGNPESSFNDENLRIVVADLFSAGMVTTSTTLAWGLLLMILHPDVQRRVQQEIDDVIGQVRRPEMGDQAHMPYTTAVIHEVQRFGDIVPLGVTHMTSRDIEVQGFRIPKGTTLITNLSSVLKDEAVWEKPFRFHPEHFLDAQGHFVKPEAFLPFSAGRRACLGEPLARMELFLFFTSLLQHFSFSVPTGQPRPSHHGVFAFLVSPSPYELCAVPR
Sequence of Protein-tyrosine kinase 2-beta (Q14289 whole entry, the tested form may be a part): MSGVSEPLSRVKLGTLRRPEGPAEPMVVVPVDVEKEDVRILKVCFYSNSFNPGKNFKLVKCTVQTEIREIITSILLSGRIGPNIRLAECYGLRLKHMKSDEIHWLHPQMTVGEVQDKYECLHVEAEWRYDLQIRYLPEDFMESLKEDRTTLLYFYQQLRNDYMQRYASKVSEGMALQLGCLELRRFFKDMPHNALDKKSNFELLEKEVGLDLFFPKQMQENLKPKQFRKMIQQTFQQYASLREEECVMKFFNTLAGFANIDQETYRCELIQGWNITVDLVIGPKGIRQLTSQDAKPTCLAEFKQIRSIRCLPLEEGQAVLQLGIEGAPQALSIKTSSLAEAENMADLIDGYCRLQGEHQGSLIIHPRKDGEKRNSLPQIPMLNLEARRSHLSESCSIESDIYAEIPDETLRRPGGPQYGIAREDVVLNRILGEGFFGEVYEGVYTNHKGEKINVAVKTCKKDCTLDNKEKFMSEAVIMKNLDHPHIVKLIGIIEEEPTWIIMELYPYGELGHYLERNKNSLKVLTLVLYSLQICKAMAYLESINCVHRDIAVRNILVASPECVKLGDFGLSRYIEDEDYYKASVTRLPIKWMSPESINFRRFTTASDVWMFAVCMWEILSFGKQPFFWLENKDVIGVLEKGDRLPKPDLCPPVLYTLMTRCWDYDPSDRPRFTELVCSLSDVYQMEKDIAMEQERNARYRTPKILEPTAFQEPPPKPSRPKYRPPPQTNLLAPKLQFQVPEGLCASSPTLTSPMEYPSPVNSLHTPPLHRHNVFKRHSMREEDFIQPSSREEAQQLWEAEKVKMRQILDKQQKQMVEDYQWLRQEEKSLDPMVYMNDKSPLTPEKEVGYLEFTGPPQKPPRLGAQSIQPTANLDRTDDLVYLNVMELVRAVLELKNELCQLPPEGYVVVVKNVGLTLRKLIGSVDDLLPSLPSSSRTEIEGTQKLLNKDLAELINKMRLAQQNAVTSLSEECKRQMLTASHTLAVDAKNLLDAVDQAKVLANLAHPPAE
Sequence of Bifunctional protein GlmU (P9WMN3 whole entry): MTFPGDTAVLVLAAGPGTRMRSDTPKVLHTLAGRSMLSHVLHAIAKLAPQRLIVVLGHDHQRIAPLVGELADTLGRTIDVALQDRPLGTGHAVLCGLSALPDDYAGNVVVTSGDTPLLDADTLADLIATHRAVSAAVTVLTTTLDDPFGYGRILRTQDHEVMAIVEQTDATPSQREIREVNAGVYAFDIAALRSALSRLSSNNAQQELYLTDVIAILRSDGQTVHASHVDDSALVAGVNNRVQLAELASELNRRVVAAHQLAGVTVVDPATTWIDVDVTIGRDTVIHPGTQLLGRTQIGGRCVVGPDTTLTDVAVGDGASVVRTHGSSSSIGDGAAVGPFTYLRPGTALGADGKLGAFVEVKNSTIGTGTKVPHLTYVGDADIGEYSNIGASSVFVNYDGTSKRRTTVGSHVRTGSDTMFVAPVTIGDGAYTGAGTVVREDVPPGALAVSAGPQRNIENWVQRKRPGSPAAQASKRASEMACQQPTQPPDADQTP

With COC(=O)CSC1=C(C#N)C(=O)NC(c2ccccc2)S1 (stereo not drawn) the EC50 [1] was 2.15 µM (active), the AC50 [2] was 7.06 µM (active) and the IC50 [3] was > 66 µM (inactive). The IC50 [4] was > 66 µM (inactive).
In the case of O=Cc1ccc2noc(-c3ccc(F)cc3)c2c1, the IC50 [5] is reported as > 100 µM (active) and the IC50 [6] is reported as > 69.5 µM (not active).
With COc1ccc(-c2cc(C(F)(F)F)n3ncc(C(=O)N4CCCCC4c4cccnc4)c3n2)cc1 (stereo not drawn) the IC50 [5] was > 100 µM (active).
With COc1ccc(N2C(=O)C(Cl)=C(Nc3ccccc3O)C2=O)cc1 the EC50 [7] was > 300 µM (not active), the EC50 [8] was 24.5 µM (active) and the IC50 [9] was 53.6 µM (active). For the same compound, the IC50 (Genome polyprotein) was 78 µM (active).
With O=C(N/N=C/c1ccc(F)cc1)c1ccc(Br)cc1 the IC50 [10] was > 50 µM (active), the AC50 (Cytochrome P450 2D6) was 3.55 µM (inconclusive) and the AC50 (Cytochrome P450 3A4) was 22.4 µM (inconclusive).
For COc1ccc(Cl)c2c3n[nH]c(SCc4ccccn4)nc-3nc12, the EC50 [11] was 0.391 µM (active), the EC50 [12] was < 0.1 µM (active) and the EC50 (H4) was 25.2 µM (active). The EC50 [13] was 0.287 µM (active) and the EC50 [14] was 0.249 µM (active).
In the case of COC(=O)C(CC(=O)c1ccc(Br)cc1)n1ccnc1 (stereo not drawn), the EC50 [15] is reported as 15.5 µM (active) and the EC50 [16] is reported as 14.4 µM (active).
In the case of O=C(COC(=O)Cc1ccc(F)cc1)NCc1ccco1, the IC50 [17] is reported as > 109 µM (inactive) and the IC50 [18] is reported as > 83.2 µM (inactive).
